The source made the active and inactive calls. The rule behind the calls is not given here.
Assays:
CWR22R [1] = experiment: Antitumor activity against human 22Rv1 cells xenografted in BALB/c nude mouse assessed as downregulation of AR-V7 level at 2.5 mg/kg, ip administered once every 4th day for 3 weeks; type: functional, organism-based
[2] = Downregulation of AR-regulated PSA protein level in human LNCaP cells at 300 nM measured for 48 hrs in presence of AR agonist, R1881 in charcoal stripped serum by Western blot analysis relative to control; type: functional
[3] = Toxicity in ICR mouse assessed as animal weight loss at 30 to 50 mg/kg, iv administered every second day for 14 days; type: organism-based; settings: in vivo, 336 h, dose 30-50 mg/kg, time 14 day
LNCaP [4] = experiment: Antitumor activity against human LNCaP cells xenografted in BALB/c nude mouse assessed as inhibition of tumor growth at 2.5 to 5 mg/kg, po administered once every 4th day for 3 weeks; type: functional, organism-based; settings: dose 2.5-5 mg/kg
CWR22R [5] = experiment: Antitumor activity against human 22Rv1 cells xenografted in BALB/c nude mouse assessed as tumor growth inhibition at 2.5 mg/kg, ip administered once every 4th day for 3 weeks; type: functional; settings: 22Rv1, 504 h, read-out: TGI
[6] = Toxicity in ICR mouse assessed as spleen damage at 30 to 50 mg/kg, iv administered every second day for 14 days; type: organism-based; settings: in vivo, 336 h, dose 30-50 mg/kg, time 14 day
[7] = Toxicity in ICR mouse assessed as kidney damage at 30 to 50 mg/kg, iv administered every second day for 14 days; type: organism-based; settings: in vivo, 336 h, dose 30-50 mg/kg, time 14 day
[8] = Biodistribution in BALB/c mouse tumor xenografted with human 22Rv1 cells at 2.5 mg/kg, iv measured at 0.5 to 1 hrs; type: ADME, organism-based, Neoplasm, CWR22R; settings: in vivo, time 0.5-1 hrs
LNCaP [9] = experiment: Cytotoxicity against AR-positive human LNCaP cells assessed as inhibition of cell growth incubated for 5 days in presence of AR agonist, R1881 in charcoal stripped serum by WST-1 assay; type: functional, cell-based; settings: 120 h
[10] = test system: Androgen receptor (Homo sapiens), P10275 [UNDEFINED MUTATION]; experiment: Induction of AR-V7 degradation in human 22Rv1 cells at 100 nM by Western blot analysis; type: cell-based; settings: time <= 48.0 hrs, TDE = time-dependent effect
LNCaP [11] = experiment: Induction of apoptosis in human LNCaP cells assessed as increase in caspase-3 level at 1 uM measured after 48 hrs by Western blot analysis; type: functional, cell-based
LNCaP [12] = experiment: Downregulation of AR-regulated FKBP5 protein level in human LNCaP cells measured for 48 hrs in presence of AR agonist, R1881 in charcoal stripped serum by Western blot analysis; type: functional, cell-based; settings: dose 300-1000 nM
[13] = Biodistribution in BALB/c mouse heart xenografted with human 22Rv1 cells at 2.5 mg/kg, iv measured at 0.5 to 1 hrs; type: ADME, organism-based, CWR22R; settings: in vivo, time 0.5-1 hrs
[14] = Biodistribution in BALB/c mouse plasma xenografted with human 22Rv1 cells at 2.5 mg/kg, iv measured at 0.5 to 1 hrs; type: ADME, organism-based, CWR22R; settings: in vivo, time 0.5-1 hrs
[15] = target: T1, Androgen receptor (Homo sapiens) (UniProt P10275); experiment: Induction of full length AR degradation in human RWPE-1 cells at 10 uM measured for 24 hrs by Western blot analysis; type: cell-based
T1 sequence (whole entry): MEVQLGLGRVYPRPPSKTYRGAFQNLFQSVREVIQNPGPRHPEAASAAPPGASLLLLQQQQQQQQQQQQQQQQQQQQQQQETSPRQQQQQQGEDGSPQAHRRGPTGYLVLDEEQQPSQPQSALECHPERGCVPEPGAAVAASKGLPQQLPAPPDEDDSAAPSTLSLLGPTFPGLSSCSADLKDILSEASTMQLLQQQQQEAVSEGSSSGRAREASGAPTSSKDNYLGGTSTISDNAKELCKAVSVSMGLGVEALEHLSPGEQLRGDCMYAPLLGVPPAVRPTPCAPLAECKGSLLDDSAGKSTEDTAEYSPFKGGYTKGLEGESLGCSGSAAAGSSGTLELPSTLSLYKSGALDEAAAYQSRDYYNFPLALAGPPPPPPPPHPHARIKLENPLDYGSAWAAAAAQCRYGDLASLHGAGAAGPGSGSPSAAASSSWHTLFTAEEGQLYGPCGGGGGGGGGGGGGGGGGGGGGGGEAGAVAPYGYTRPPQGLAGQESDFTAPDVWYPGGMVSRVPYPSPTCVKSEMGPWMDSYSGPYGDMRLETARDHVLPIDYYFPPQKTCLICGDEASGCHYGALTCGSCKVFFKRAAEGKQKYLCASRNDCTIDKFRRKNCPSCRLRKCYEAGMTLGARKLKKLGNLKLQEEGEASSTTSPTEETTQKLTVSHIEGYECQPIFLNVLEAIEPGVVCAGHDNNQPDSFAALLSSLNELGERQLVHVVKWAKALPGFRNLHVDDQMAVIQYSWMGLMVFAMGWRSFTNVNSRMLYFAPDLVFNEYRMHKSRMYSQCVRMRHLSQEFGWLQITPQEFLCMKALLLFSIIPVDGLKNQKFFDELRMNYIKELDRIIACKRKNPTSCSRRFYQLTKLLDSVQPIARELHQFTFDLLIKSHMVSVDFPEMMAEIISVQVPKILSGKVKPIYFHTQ

CWR22R [16] = experiment: Induction of apoptosis in human 22Rv1 cells assessed as increase in caspase-3 level at 1 uM measured after 48 hrs by Western blot analysis; type: functional, cell-based
[17] = Biodistribution in BALB/c mouse lung xenografted with human 22Rv1 cells at 2.5 mg/kg, iv measured at 0.5 to 1 hrs; type: ADME, organism-based, CWR22R; settings: in vivo, time 0.5-1 hrs
[18] = Biodistribution in BALB/c mouse liver xenografted with human 22Rv1 cells at 2.5 mg/kg, iv measured at 0.5 to 1 hrs; type: ADME, organism-based, CWR22R; settings: in vivo, time 0.5-1 hrs
LNCaP [19] = experiment: Antitumor activity against human LNCaP cells xenografted in BALB/c nude mouse assessed as downregulation of FKBP5 level at 5 mg/kg, ip administered once every 4th day for 3 weeks and measured at 2 hrs post dose; type: functional, organism-based
[20] = Biodistribution in BALB/c mouse testis xenografted with human 22Rv1 cells at 2.5 mg/kg, iv measured at 0.5 to 1 hrs; type: ADME, organism-based, CWR22R; settings: in vivo, time 0.5-1 hrs
[21] = Downregulation of AR-regulated FKBP5 protein level in human LNCaP cells at 300 nM measured for 48 hrs in presence of AR agonist, R1881 in charcoal stripped serum by Western blot analysis relative to control; type: functional
[22] = Toxicity in ICR mouse assessed as liver damage at 30 to 50 mg/kg, iv administered every second day for 14 days; type: organism-based; settings: in vivo, 336 h, dose 30-50 mg/kg, time 14 day
[23] = Downregulation of AR-regulated TMPRSS2 protein level in human LNCaP cells at 300 nM measured for 48 hrs in presence of AR agonist, R1881 in charcoal stripped serum by Western blot analysis relative to control; type: functional
[24] = target: T1, Androgen receptor (Homo sapiens); experiment: Induction of full length AR degradation in human LNCaP cells assessed as maximum degradation at 100 nM measured after 12 hrs relative to control; type: cell-based
LNCaP [25] = experiment: Antitumor activity against human LNCaP cells xenografted in BALB/c nude mouse assessed as downregulation of TMPRSS2 level at 5 mg/kg, ip administered once every 4th day for 3 weeks and measured at 2 hrs post dose; type: functional, organism-based

- Drug uptake [8]: Active
- Activity [10]: Tde
- Drug uptake [13]: Active
- Drug uptake [14]: Active
- Activity [15]: inactive
- Drug uptake [17]: Active
- Drug uptake [18]: Active
- Drug uptake [20]: Active
- Activity [24]: > 90%
Structure (SMILES): CC(C)c1cc(-c2n[nH]c(=O)n2-c2ccc(CN3CCN(CC4CCN(c5ccc(C(=O)N[C@H]6CC[C@H](Oc7ccc(C#N)c(Cl)c7)CC6)nn5)CC4)CC3)cc2)c(O)cc1O
- Activity (CWR22R [1]): Active
- Activity [2]: >50%
- Activity [3]: Non-Toxic
- Activity (LNCaP [4]): Active
- inhibition in vivo at 2.5 mg/kg (CWR22R [5]): 50%
- Activity [6]: Non-Toxic
- Activity [7]: Non-Toxic
- IC50 (LNCaP [9]): 171 nM
- Activity (LNCaP [11]): Active
- Activity (LNCaP [12]): Dose-Dependent Effect
- Activity (CWR22R [16]): Active
- Activity (LNCaP [19]): Active
- Activity [21]: >50%
- Activity [22]: Non-Toxic
- Activity [23]: >50%
- Activity (LNCaP [25]): Active
